For one experiment, the system named is KBV1. The experiment can be described thus: cells. The note with it: for IC50 / inhibition at 3 µM: Homo sapiens; for IC50: KB-V1, 72 h, 3 days, SRB; for inhibition at 3 µM: KB-V1, 3000 nM. In kind it is cell-based. As for the experimental part: (§1) Cell Survival Assay: Standard Pharmacological Test Procedure. […] Compounds are incubated with cells for 3 days.

In the next experiment the test system is KB cells. As to the kind of experiment: cells. In kind it is cell-based. Particulars: 3 days, SRB. The protocol:
as §1

For the next experiment, the system named is KB85. As to the kind of experiment: cells. Particulars: for IC50: 72 h, 3 days, SRB. Format: cell-based. As for the experimental part:
as §1

The subject of experiment [1] is bovine microtubule-associated protein (MAP)-rich tubulin. Format: biochemical. Particulars: 0.3 uM. The protocol:
Tubulin Polymerization Assays. For in vitro tubulin polymerization assays, bovine microtubule-associated protein (MAP)-rich tubulin, PEM buffer [80 mM Na-PIPES (pH 6.9), 1 mM MgCl2, and 1 mM EGTA], and GTP are purchased from Cytoskeleton (Denver, Colo.). MAP-rich tubulin (final concentration 1.5 mg/ml) is dissolved in cold PEM buffer containing 1 mM GTP (GPEM) and centrifuged at 12,000×g for 10 min at 4° C. The tubulin solution (100 μl/well) is added rapidly to wells of a low-volume, 96-well plate already containing duplicate aliquots (10 μl) of test compounds in GPEM. […] Control wells contained the same final concentration of DMSO (0.3%). After initiation of the reaction, absorbance at 340 nm is measured every minute for 60 min at 24° C. using a SpectraMax Plus plate reader (Molecular Devices, Sunnyvale, Calif.).

Where a SMILES comes first, the peptide text is derived from it. [ ]: non-standard residue; d: D form. NMePhe(β,β-Me2) = CN[C@H](C(=O)O)C(C)(C)c1ccccc1; Tle = CC(C)(C)[C@H](N)C(=O)O; NMeV = CN[C@H](C(=O)O)C(C)C

The values below come from US7390910B2, “Compounds for treating tumors” (priority 2003, dated 2008).

As for `CN[C@H](C(=O)N[C@H](C(=O)N(C)[C@H](/C=C(\C)C(=O)N1CCCC[C@H]1C(=O)OC)C(C)C)C(C)(C)C)C(C)(C)c1ccccc1` [Example 49, N,β,β-trimethyl-L-phenylalanyl-N^1-{(1S,2E)-1-isopropyl-4-[(2S)-2-(methoxycarbonyl)piperidin-1-yl]-3-methyl-4-oxobut-2-enyl}-N^1,3-dimethyl-L-valinamide], the IC50 is 0.15 µM in the experiment with KBV1; 0.0052 µM with KB cells (Homo sapiens, KB, 72 h); 0.017 µM with KB85. Moreover, the “Tubulin Polym. % inhibition at 0.3 uM” value in experiment [1] is listed as 62(2) %.

In the case of `CN[C@H](C(=O)N[C@H](C(=O)N(C)[C@H](/C=C(\C)C(=O)N1CCN(C)CC1)C(C)C)C(C)(C)C)C(C)(C)c1cc(C)cc(C)c1` [Example 8, N,β,β,3,5-Pentamethyl-L-phenylalanyl-N^1-[(1S,2E)-1-isopropyl-3-methyl-4-(4-methylpiperazin-1-yl)-4-oxobut-2-enyl]-N^1,3-dimethyl-L-valinamide], the IC50 in the experiment on KBV1 is 1.62 µM; in the experiment on KB cells (Homo sapiens, KB, 72 h), 0.035 µM; in the experiment on KB85, 0.056 µM. Moreover, the “Tubulin Polym. % inhibition at 0.3 uM” value in experiment [1] worked out at 68%.

For the compound `CN[C@H](C(=O)N[C@H](C(=O)N(C)[C@H](/C=C(\C)C(=O)N1CCC[C@H]1C(=O)O)C(C)C)C(C)(C)C)C(C)(C)c1cc(C)cc(C)c1` [Example 20, N,β,β,3,5-Pentamethyl-L-phenylalanyl-N^1-{(1S,2E)-4-[(2S)-2-carboxypyrrolidin-1-yl]-1-isopropyl-3-methyl-4-oxobut-2-enyl}-N^1,3-dimethyl-L-valinamide], at 3 µM the inhibition in the experiment with KBV1 was 3%. The IC50 with KB cells (Homo sapiens, KB, 72 h) is 0.082 µM; with KB85 it was 0.664 µM. In experiment [1], the “Tubulin Polym. % inhibition at 0.3 uM” value was determined as 80%.

Take `CN[C@H](C(=O)N[C@H](C(=O)N(C)[C@H](/C=C(\C)C(=O)O)C(C)C)C(C)(C)C)C1(C)CCCc2ccccc21` (stereo partly drawn) [Example 59, (2E,4S)-2,5-dimethyl-4-(methyl{3-methyl-N-[(2S)-2-(methylamino)-2-(1-methyl-1,2,3,4-tetrahydro-1-naphthalenyl)ethanoyl]-L-valyl}amino)-2-hexenoic acid]: the IC50 in the experiment on KBV1 was 0.076 µM; in the experiment with KB cells (Homo sapiens, KB, 72 h), 0.0055 µM; in the experiment on KB85, 0.0066 µM. For the same compound, the “Tubulin Polym. % inhibition at 0.3 uM” value in experiment [1] came out at 93%.

For the compound `CN[C@H](C(=O)N[C@H](C(=O)N(C)[C@H](C(=O)N1CCC[C@H]1C(=O)OC)C(C)C)C(C)(C)C)C(C)(C)c1ccccc1` [Example 33, Methyl N,β,β-trimethyl-L-phenylalanyl-3-methyl-L-valyl-N-methyl-L-valyl-L-prolinate] (H-[NMePhe(β,β-Me2)][Tle][NMeV]P-OMe), the IC50 worked out at 1.53 µM in the experiment on KBV1; 0.018 µM in the experiment with KB cells (Homo sapiens, KB, 72 h); 0.053 µM in the experiment on KB85. Also, the “Tubulin Polym. % inhibition at 0.3 uM” value in experiment [1] was found to be 19%.

The compound `CN[C@H](C(=O)N[C@H](C(=O)N(C)[C@H](/C=C(\C)C(=O)N1C[C@H](O)C[C@H]1C(=O)O)C(C)C)C(C)(C)C)C(C)(C)c1ccccc1` [Example 42, N,β,β-trimethyl-L-phenylalanyl-N^1-{(1S,2E)-4-[(2S,4R)-2-carboxy-4-hydroxypyrrolidin-1-yl]-1-isopropyl-3-methyl-4-oxobut-2-enyl}-N^1,3-dimethyl-L-valinamide] gave an inhibition at 3 µM in the experiment with KBV1 of 0%. Further, the IC50 in the experiment with KB cells (Homo sapiens, KB, 72 h) amounted to 0.184 µM; in the experiment on KB85 it was 1.85 µM. The “Tubulin Polym. % inhibition at 0.3 uM” value in experiment [1] amounted to 96%.

In the case of `CN[C@H](C(=O)N[C@H](C(=O)N(C)[C@@H](/C=C(\C)C(=O)OCc1ccc(OCc2ccccc2)cc1)C(C)C)C(C)(C)C)C(C)(C)c1ccccc1` [Example 54, N,β,β-trimethyl-L-phenylalanyl-N^1-((1R,2E)-4-{[4-(benzyloxy)benzyl]oxy}-1-isopropyl-3-methyl-4-oxobut-2-enyl)-N^1,3-dimethyl-L-valinamide], in the experiment on KBV1, testing at 3 µM gave an inhibition of 8%. Also, the IC50 was determined as 0.136 µM with KB cells (Homo sapiens, KB, 72 h) and 0.846 µM with KB85. For the same compound, the “Tubulin Polym. % inhibition at 0.3 uM” value in experiment [1] worked out at 55%.

Consider `C/C(=C\[C@H](C(C)C)N(C)C(=O)[C@@H](NC(=O)C1N(C)CCSC1(C)C)C(C)(C)C)C(=O)O` (stereo partly drawn) [Example 58, (2E,4S)-2,5-dimethyl-4-(methyl{3-methyl-N-[(2,2,4-trimethylthiomorpholin-3-yl)carbonyl]-L-valyl}amino)hex-2-enoic acid], for which, in the experiment with KBV1, the inhibition at 3 µM is 15%. In addition, the IC50 with KB cells (Homo sapiens, KB, 72 h) was 0.427 µM; in the experiment with KB85, 0.55 µM. Also, the “Tubulin Polym. % inhibition at 0.3 uM” value in experiment [1] is reported as 89(2) %.

Turning to `CN[C@H](C(=O)N[C@H](C(=O)N(C)[C@H](/C=C(\C)C(=O)N1CCN(Cc2ccccc2)CC1)C(C)C)C(C)(C)C)C(C)(C)c1ccccc1` [Example 39, N,β,β-trimethyl-L-phenylalanyl-N^1-[(1S,2E)-4-(4-benzylpiperazin-1-yl)-1-isopropyl-3-methyl-4-oxobut-2-enyl]-N^1,3-dimethyl-L-valinamide], the IC50 with KBV1 amounted to 0.366 µM; in the experiment with KB cells (Homo sapiens, KB, 72 h) it was 0.015 µM; in the experiment with KB85, 0.022 µM. Also, in experiment [1], the “Tubulin Polym. % inhibition at 0.3 uM” value was found to be 29%.

With `CN[C@@H](C(=O)N[C@H](C(=O)N(C)[C@H](/C=C(\C)C(=O)N1CCOCC1)C(C)C)C(C)(C)C)C(C)(C)c1cc(C)cc(C)c1` [Example 5, N,β,β,3,5-Pentamethyl-D-phenylalanyl-N^1-[(1S,2E)-1-isopropyl-3-methyl-4-morpholin-4-yl-4-oxobut-2-enyl]-N^1,3-dimethyl-L-valinamide], at 3 µM the inhibition in the experiment on KBV1 was 40%. Besides, the IC50 in the experiment with KB cells (Homo sapiens, KB, 72 h) turned out to be 0.207 µM; in the experiment with KB85, 0.459 µM. Besides, in experiment [1], the “Tubulin Polym. % inhibition at 0.3 uM” value was determined as 57%.

As to `CN[C@H](C(=O)N[C@H](C(=O)N(C)[C@H](/C=C(\C)C(=O)N1CCC[C@H]1C(=O)OC)C(C)C)C(C)(C)C)C(C)(C)c1cccc(Cl)c1` [Example 23, 3-Chloro-N,β,β-trimethyl-L-phenylalanyl-N^1-{(1S,2E)-4-[(2S)-2-(methoxycarbonyl)pyrrolidin-1-yl]-1-isopropyl-3-methyl-4-oxobut-2-enyl}-N^1,3-dimethyl-L-valinamide], the IC50 worked out at 0.362 µM in the experiment with KBV1; 0.0025 µM in the experiment with KB cells (Homo sapiens, KB, 72 h); 0.0062 µM with KB85. In addition, in experiment [1], the “Tubulin Polym. % inhibition at 0.3 uM” value is 88%.

As for “Ethyl (E,4S)-4-[((2S)-2-{[(2S)-2-azido-3-methyl-3-phenylbutanoyl]amino}-3,3 -dimethylbutanoyl)(methyl)amino]-2,5-dimethyl-2-hexenoate and ethyl (E,4S)-4-[((2S)-2-{[(2R)-2-azido-3-methyl-3-phenylbutanoyl]amino}-3,3-dimethylbutanoyl)(methyl)amino]-2,5-dimethyl-2-hexenoate [Example 93]”, the “KBV1 % inhibition @ 3000 nM” value in the experiment on KBV1 (3000 nM) is reported as 30%. In the experiment on KB cells, this compound had an IC50 of 2.51 µM. Also, the “KB85 % inhibition @ 3000 nM” value in the experiment with KB85 (3000 nM) stood at 30%.

`CN[C@@H](C(=O)N[C@H](C(=O)N(C)[C@H](/C=C(\C)C(=O)O)C(C)C)C(C)(C)C)C12CC3CC(CC(C3)C1)C2` [Example 56, (2E,4S)-4-[{N-[(2R)-2-(1-adamantyl)-2-(methylamino)ethanoyl]-3-methyl-L-valyl}(methyl)amino]-2,5-dimethyl-2-hexenoic acid] yielded an inhibition at 3 µM in the experiment on KBV1 of 11%. Besides, the IC50 with KB cells (Homo sapiens, KB, 72 h) was determined as 0.468 µM; in the experiment on KB85, 0.575 µM.

By IC50 is commonly meant the midpoint of a concentration-inhibition curve. Broadly, the inhibition is the percentage by which the read-out fell short of the control. A higher inhibition goes with a strong effect.
